For the test, the target named is T1, Excitatory amino acid transporter 3 (Homo sapiens, UniProt P43005).
T1 sequence (P43005 whole entry): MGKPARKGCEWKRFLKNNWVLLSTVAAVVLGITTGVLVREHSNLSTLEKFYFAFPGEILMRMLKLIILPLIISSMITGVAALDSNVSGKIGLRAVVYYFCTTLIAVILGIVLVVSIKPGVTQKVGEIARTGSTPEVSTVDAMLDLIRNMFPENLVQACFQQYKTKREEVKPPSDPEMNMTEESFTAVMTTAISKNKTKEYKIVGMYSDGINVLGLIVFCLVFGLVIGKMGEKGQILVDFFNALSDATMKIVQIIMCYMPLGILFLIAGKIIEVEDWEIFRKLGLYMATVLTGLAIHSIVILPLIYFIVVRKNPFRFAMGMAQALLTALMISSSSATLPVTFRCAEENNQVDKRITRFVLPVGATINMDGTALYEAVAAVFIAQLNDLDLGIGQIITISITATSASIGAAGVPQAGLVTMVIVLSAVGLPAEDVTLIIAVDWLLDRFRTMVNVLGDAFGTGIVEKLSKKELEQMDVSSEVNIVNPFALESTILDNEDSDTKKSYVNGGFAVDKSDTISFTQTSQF
The test is described as follows: Substrate uptake by the Excitatory Amino Acid Transporter 3 (EAAT3, SLC1A1) as assessed by the fluorescent FLIPR membrane potential dye in HEK-293 JumpIN-SLC1A1 cells (PubChem AID: 1794812). It is filed as functional, cell-based, HEK293.

Molecules are shown by their SMILES.

For orientation: EC50 means the concentration needed to bring the measured effect to its halfway point. As to `N[C@@H](CCC(=O)O)C(=O)O` [GLUTAMIC ACID], the EC50 result (hek293) is given as “Substrate: The Commpound Is Eliciting A Specific Response, But A Broader Concentration Range Is Needed To Calculate A Correct Ec50”. On the same count and under the same terms, for `N[C@@H](CC(=O)O)C(=O)O` [ASPARTIC ACID] the value was “Substrate: The Commpound Is Eliciting A Specific Response, But A Broader Concentration Range Is Needed To Calculate A Correct Ec50”. Regarding `N[C@@H](CS)C(=O)O` [CYSTEINE], the concentration for a half-maximal effect (EC50) (read-out: EC50) turned out to be 161 µM.
